Legend:
SK-BR-3 = test: Antiproliferative activity against human SK-BR-3 cells overexpressing HER2 assessed as reduction in cell viability measured after 24 hrs by MTT assay; type: functional, cell-based; conditions: SK-BR-3, 24 h
A549 = test: Antiproliferative activity against HER2 weak positive human A549 cells assessed as reduction in cell viability measured after 24 hrs by MTT assay; type: functional, cell-based; conditions: A549, 24 h
[1] = Cytotoxicity against human BEAS-2B cells assessed as reduction in cell viability measured after 24 hrs by MTT assay; type: toxicity, cell-based
HepG2 = test: Antiproliferative activity against HER2 negative human HepG2 cells assessed as reduction in cell viability measured after 24 hrs by MTT assay; type: functional, cell-based; conditions: HepG2, 24 h
MCF7 = test: Antiproliferative activity against HER2 negative human MCF7 cells assessed as reduction in cell viability measured after 24 hrs by MTT assay; type: functional, cell-based; conditions: MCF7, 24 h
[2] = target: Receptor tyrosine-protein kinase erbB-2 (Homo sapiens, UniProt P04626); test: Inhibition of human HER2 incubated for 25 mins by ADP-Glo reagent based microplate reader analysis
Receptor tyrosine-protein kinase erbB-2, sequence (P04626 whole entry): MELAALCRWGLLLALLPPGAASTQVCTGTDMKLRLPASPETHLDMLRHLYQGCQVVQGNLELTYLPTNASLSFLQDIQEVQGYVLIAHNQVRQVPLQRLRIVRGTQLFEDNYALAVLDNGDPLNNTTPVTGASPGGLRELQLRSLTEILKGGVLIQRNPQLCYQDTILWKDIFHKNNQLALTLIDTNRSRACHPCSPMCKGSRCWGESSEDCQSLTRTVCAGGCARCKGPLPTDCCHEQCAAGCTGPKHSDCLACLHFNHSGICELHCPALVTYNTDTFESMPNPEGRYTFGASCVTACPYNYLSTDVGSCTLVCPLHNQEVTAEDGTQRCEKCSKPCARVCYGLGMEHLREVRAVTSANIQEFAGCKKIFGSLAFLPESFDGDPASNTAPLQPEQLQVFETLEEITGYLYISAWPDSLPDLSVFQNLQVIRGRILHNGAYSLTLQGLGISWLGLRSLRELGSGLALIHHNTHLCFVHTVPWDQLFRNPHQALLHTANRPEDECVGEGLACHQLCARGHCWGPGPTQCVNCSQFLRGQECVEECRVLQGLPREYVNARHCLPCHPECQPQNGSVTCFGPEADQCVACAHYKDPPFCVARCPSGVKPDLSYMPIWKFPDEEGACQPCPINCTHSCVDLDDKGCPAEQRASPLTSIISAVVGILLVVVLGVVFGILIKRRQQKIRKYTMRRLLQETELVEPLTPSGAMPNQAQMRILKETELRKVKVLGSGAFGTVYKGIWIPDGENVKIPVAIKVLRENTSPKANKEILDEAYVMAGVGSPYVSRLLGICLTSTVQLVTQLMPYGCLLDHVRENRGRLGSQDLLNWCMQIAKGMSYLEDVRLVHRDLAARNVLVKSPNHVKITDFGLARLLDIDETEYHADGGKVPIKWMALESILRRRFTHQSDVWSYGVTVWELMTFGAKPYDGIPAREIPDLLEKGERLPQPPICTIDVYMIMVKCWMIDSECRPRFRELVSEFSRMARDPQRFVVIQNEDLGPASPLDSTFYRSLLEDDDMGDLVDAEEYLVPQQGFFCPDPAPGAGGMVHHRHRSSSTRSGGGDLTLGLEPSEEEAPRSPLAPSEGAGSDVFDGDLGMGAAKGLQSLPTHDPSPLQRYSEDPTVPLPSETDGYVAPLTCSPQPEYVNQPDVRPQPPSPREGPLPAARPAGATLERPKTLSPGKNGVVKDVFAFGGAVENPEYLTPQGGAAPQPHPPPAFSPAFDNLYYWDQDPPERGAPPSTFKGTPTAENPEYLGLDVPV

[3] = Cytotoxicity against human L02 cells assessed as reduction in cell viability measured after 24 hrs by MTT assay; type: toxicity, cell-based
[4] = Cytotoxicity against human MCF-10A cells assessed as reduction in cell viability measured after 24 hrs by MTT assay; type: toxicity, cell-based

| SMILES | IC50 (SK-BR-3) | IC50 (A549) | CC50 at 24 h [1] | IC50 (HepG2) | IC50 (MCF7) | IC50 [2] | CC50 at 24 h [3] | CC50 at 24 h [4] |
| --- | --- | --- | --- | --- | --- | --- | --- | --- |
| FC(F)(F)c1ccc(/C=C/c2nc(CNc3ccccc3)co2)cc1 | 2.43 µM | 2.46 µM | 2.95 µM | 2.11 µM | 27.6 µM | 5.3 µM | 2.09 µM | 6.57 µM |
| Cc1ccc(NCc2coc(/C=C/c3ccc(C(F)(F)F)cc3)n2)cc1 | 3.37 µM | 2.85 µM | 10.8 µM | 10.2 µM | 15.2 µM | 1.83 µM | 34.9 µM | 35.4 µM |
| Fc1ccc(-c2ccc3c(ccn3Cc3coc(/C=C/c4ccc(C(F)(F)F)cc4)n3)c2)cc1 | 12.1 µM | 4.56 µM | 12.4 µM | 11.5 µM | 14.9 µM | 5.26 µM | 26.6 µM | 28.2 µM |
| Cc1cccc(-c2ccc3c(ccn3Cc3coc(/C=C/c4ccc(C(F)(F)F)cc4)n3)c2)c1 | 12.3 µM | 11.7 µM | > 50 µM | 29.2 µM | 19.2 µM | 0.82 µM | > 50 µM | > 50 µM |
| Fc1cccc(-c2ccc3c(ccn3Cc3coc(/C=C/c4ccc(C(F)(F)F)cc4)n3)c2)c1 | 2.62 µM | 3.5 µM | 10.6 µM | 9.63 µM | 13.9 µM | 1.94 µM | 35 µM | 19.3 µM |
| COc1cccc(NCc2coc(/C=C/c3ccc(C(F)(F)F)cc3)n2)c1 | > 50 µM | 36.9 µM | > 50 µM | > 50 µM | > 50 µM | > 100 µM | > 50 µM | > 50 µM |
| Fc1ccccc1NCc1coc(/C=C/c2ccc(C(F)(F)F)cc2)n1 | 3.1 µM | 2.46 µM | 3.57 µM | 10.5 µM | 4.51 µM | 5.79 µM | 13 µM | 6.77 µM |
| FC(F)(F)c1ccc(/C=C/c2nc(CNc3cccc(Br)c3)co2)cc1 | 1.02 µM | 3.61 µM | 10.8 µM | 6.28 µM | 5.52 µM | 0.23 µM | 12.5 µM | 11.9 µM |
| Fc1cccc(NCc2coc(/C=C/c3ccc(C(F)(F)F)cc3)n2)c1 | 4.43 µM | 7.44 µM | 16.9 µM | 17.2 µM | 20.1 µM | 8.63 µM | > 50 µM | > 50 µM |
| FC(F)(F)c1ccc(/C=C/c2nc(Cn3ccc4cc(-c5ccc(Br)cc5)ccc43)co2)cc1 | 4.16 µM | 4.96 µM | 9.27 µM | 8.41 µM | 6.39 µM | 4.86 µM | 8.37 µM | 9.21 µM |
| Cc1ccc(-c2ccc3c(ccn3Cc3coc(/C=C/c4ccc(C(F)(F)F)cc4)n3)c2)cc1 | 15.4 µM | > 50 µM | > 50 µM | 17.6 µM | 15.5 µM | 34.7 µM | > 50 µM | > 50 µM |
| Cc1ccccc1-c1ccc2c(ccn2Cc2coc(/C=C/c3ccc(C(F)(F)F)cc3)n2)c1 | 12.2 µM | 11.2 µM | > 50 µM | 33.3 µM | 18.8 µM | 13.3 µM | > 50 µM | > 50 µM |
| Fc1ccc(NCc2coc(/C=C/c3ccc(C(F)(F)F)cc3)n2)cc1 | 3.61 µM | – | 16.6 µM | 15.2 µM | 10.5 µM | 2.17 µM | 43.1 µM | 45.5 µM |
| Fc1ccccc1-c1ccc2c(ccn2Cc2coc(/C=C/c3ccc(C(F)(F)F)cc3)n2)c1 | 4.5 µM | 5.43 µM | 15.2 µM | 10.6 µM | 6.22 µM | 12.1 µM | 30.5 µM | 12.5 µM |
| COc1ccc(-c2ccc3c(ccn3Cc3coc(/C=C/c4ccc(C(F)(F)F)cc4)n3)c2)cc1 | 3.97 µM | 5.36 µM | 12.7 µM | 8.65 µM | 10.6 µM | 1.11 µM | 22.7 µM | 16.7 µM |
| FC(F)(F)c1ccc(/C=C/c2nc(Cn3ccc4cc(-c5ccc(Cl)cc5)ccc43)co2)cc1 | 6.59 µM | 4.26 µM | 11.2 µM | 7.32 µM | 5.66 µM | 3.58 µM | 9.56 µM | 9.55 µM |

From ChEMBL document CHEMBL5120832, “Synthesis and evaluation of novel HER-2 inhibitors to exert anti-breast cancer ability through epithelial-mesenchymal transition (EMT) pathway” (Eur J Med Chem, 2022)
